# Read-outs that look alike come from different tables or passages of the source.
# What was measured:
# [1] = test system: maximal electroshock seizures (MES); conditions: ip; for MES PI (protective index = TD50/ED50): mouse, in vivo;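 for MES ED50: seizures induced by corneal electroshock, 60-cycle alternating current at 50 mA for 0.2 s, protection means no hind limb tonic extension, scored right after the shock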;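 for anti-MES / anticonvulsant activity (in words): seizures induced by corneal electroshock, 60-cycle alternating current at 50 mA for 0.2 s, protection means no hind limb tonic extension, scored right after the shock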
# Description: The preliminary screening was done at doses of the test compounds from 30 mg/kg up to 600 mg/kg adminstered ip in mice and evaluated against maximal electroshock seizures (MES) and subcutaneous Metrazole (scMet) induced convulsions and in the rotorod test for neurologic deficit.
# (§1) All tests were performed using male Carworth Farms number-one mice. Test solutions of all compounds were prepared in 30% polyethylene glycol 400 and animals were dosed intraperitoneally (ip) at 30 minutes prior to testing.
# Maximal electroshock seizures (MES) were elicited with a 60 cycle alternating current of 50 mA intensity delivered for 0.2 second via corneal electrodes. A drop of 0.9% saline was instilled in the eye prior to application of electrodes. The animals were examined and evaluated immediately after the electroshock for the occurrence of clonic, flexor tonic, or extensor tonic convulsions or death. Abolition of the hind limb tonic extension component of the seizure was defined as protection in the MES test. The ED50 was determined for the test compound as the dose which inhibited the occurrence of hind limb tonic convulsions in one half of the animals immediately after the electroshock as determined by graphical interpolation.
# (§2) Neurological deficit was measured in mice using the rotorod test. The dosed animal was placed on a 1-inch diameter knurled plastic rod rotating at 6 rpm. Neurologic toxicity was defined as the failure of the animal to remain on the rod for 1 minute. The median anticonvulsant protency (ED50) and toxicity (TD50) were determined by the graphical method.
# [2] = test system: subcutaneous Metrazole (scMet) induced convulsions; experiment: Subcutaneous pentylenetetrazole (Metrazol) seizure threshold test (scMet) in mice, ip; conditions: ip
# Description: Protection in this test was defined as a failure to observe a single episode of clonic spasms of at least 5 second duration during a 30 minute period following adminstration of the test compound.
# in vivo [3] = conditions: mouse, ip
# Description: as §1, §2
# [4] = test system: neurologic deficit (rotorod); conditions: mouse, in vivo; for TD50: ip
# Description: as §1, §2
# in vivo [5] = conditions: mouse, ip; remark: listed apart in the source
# Description: as §1
# [6] = test system: neurologic deficit (rotorod); experiment: Rotorod test for neurologic deficit in mice, ip; conditions: 30 mg/kg
# Description: as §1, §2
# [7] = test system: maximal electroshock seizures (MES); conditions: previous studies by Clark et al.; cited from earlier work;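 for MES ED50: seizures induced by corneal electroshock, 60-cycle alternating current at 50 mA for 0.2 s, protection means no hind limb tonic extension, scored right after the shock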;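 for anti-MES / anticonvulsant activity (in words): seizures induced by corneal electroshock, 60-cycle alternating current at 50 mA for 0.2 s, protection means no hind limb tonic extension, scored right after the shock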
# [8] = test system: subcutaneous Metrazole (scMet) induced convulsions; conditions: previous studies by Clark et al.; cited from earlier work
# [9] = Mus musculus, 0.5 h, read-out: scMet activity, 30 min
# [10] = Mus musculus, 4 h, read-out: scMet activity, 4 hrs
SMILES,anti-MES / anticonvulsant activity (in words) ([1]; mice),"minimal effective dose [2, 9] [mg/kg]","minimal effective dose [2, 10] [mg/kg]",TD50 (in vivo [3]) [mg/kg],MES ED50 ([1]; mice) [mg/kg],PI values (in words) ([1]; mice),MES PI (protective index = TD50/ED50) [1],rotorod toxicity at 600 mg/kg [4],TD50 [4] [mg/kg],LD50 (in vivo [5]) [mg/kg],animals with rotorod toxicity at 30 mg/kg [6],"ED50 ([2]; Mus musculus, read-out: scMET ED50) [mg/kg]","animals with anti-MES activity at 30 mg/kg ([1]; 30 mg/kg, mice)",activity against MES induced convulsions (dose range) [7] [mg/kg],activity against scMet induced convulsions (dose range) [8] [mg/kg],scMET PI (protective index = TD50/ED50) ([2]; mice)
Cc1ccc(C)c(NC(=O)c2ccc(N)cc2)c1 [Example 8],good anti-MES activity,300,> 600,–,–,–,–,–,–,–,–,–,–,–,–,–
Cc1cccc(C(C)C)c1NC(=O)c1ccc(N)cc1 [Example 12],more potent,> 600,> 600,1500 to 2000,86.13,highest PI values,> 17.42,no rotorod toxicity,> 1500.0,–,–,–,–,–,–,–
"Cc1ccc(NC(=O)c2ccc(N)cc2)cc1 [Example 5, 4-amino-N-(4-methylphenyl) benzamide]",–,30,> 600,–,–,–,–,–,–,–,–,–,–,–,–,–
CCc1cccc(C(C)C)c1NC(=O)c1ccc(N)cc1 [Example 13],more potent,300,> 600,–,16.67,–,2.95,–,49.10,< 600,1 out of 4,–,–,–,–,–
Cc1ccc(NC(=O)c2ccc(N)cc2)cc1C [Example 9],good anti-MES activity,300,300,–,42.31,higher PI values,4.59,–,194.14,–,–,80.8,–,–,–,–
Cc1cccc(NC(=O)c2ccc(N)cc2)c1C [Example 6],good anti-MES activity,100,> 300,–,25.25,higher PI values,4.11,–,103.90,< 600,–,–,approximately half the animals,–,–,–
CC(C)c1ccccc1NC(=O)c1ccc(N)cc1 [Example 11],–,600,–,–,81.52,highest PI values,8.70,–,708.98,–,–,–,–,–,–,–
Nc1ccc(C(=O)Nc2ccccc2)cc1 [Example 2],–,100,> 600,–,–,–,2.20,–,–,–,–,–,–,~50,~50,1.88
Cc1cc(C)cc(NC(=O)c2ccc(N)cc2)c1 [Example 10],good anti-MES activity,> 600,> 600,–,–,–,–,–,–,–,–,–,–,–,–,–
